Entries after “also recorded” stand apart in the source; their conditions may differ.
Legend:
Assay type in all cases: in vivo, zebrafish
kmt2d-CRISPR embryos = assay: Brain cell proliferation (pHH3 immunostaining) in kmt2d-mosaic mutants; settings: 100 nM, 2 dpf, listed as dmDf
Text: (§1) Intellectual disability represents a major phenotype in KS, with some studies reporting almost 90% of patients to be affected (see, Wessels, M. W., et al. Clin Dysmorphol 11, 95-102 (2002)). […] Previous studies have shown that defects in proliferation in the developing zebrafish brain can be a proxy for neurodevelopmental and neurocognitive traits, especially in the context of microcephaly (see, Borck, G. et al. Genome Res 25, 609 (2015); Brooks, S. S. et al. Genetics 198, 723-33 (2014); O'Rawe, J. A. et al. Am J Hum Genet 97, 922-32 (2015); Wortmann, S. B. et al. Am J Hum Genet 96, 245-57 (2015)), a phenotype reported commonly in KS (see, Matsumoto, N. & Niikawa, N. Am J Med Genet C Semin Med Genet 117C, 57-65 (2003)).
(§2) For convergence and extension (CE) phenotyping, embryos were scored as described (see, Leitch, C. C. et al. Nat Genet 40, 443-8 (2008)) at the 8-10 somite stage, and images were captured using an AZ100 microscope and NIS Elements software (Nikon). […] The distance between Meckel's (MK) and ceratohyal (CH) cartilages was measured on ventral bright field images with Image J (NIH). […] Fluorescence signal on embryo heads was imaged with the Nikon AZ100 microscope and DS-Qi1MC digital camera using […] Z-stacks to generate extended depth of focus images. Cell numbers were quantified using the ImageJ ICTN plugin (NIH). […]

pMEK1/2 = assay: Western blot of pMEK1/2 in head lysate of 5 dpf embryos; settings: 100 nM or 500 nM
Protocol: FIG. 7: dmDf attenuates hyperactive MEK signaling in vivo. (a) Western blot analysis for the level of pMEK1/2 from the head lysate of 5 dpf zebrafish embryos. Depletion of kmt2d (lane 4) elevates the abundance of pMEK1/2 in comparison to control embryos (lane 1). […] (b) Summary of the relative levels of pMEK1/2 from three independent experiments. *p<0.05 (n=3). (c) kmt2d morphants were treated with serially increasing concentrations of dmDf. The embryos were scored for CE phenotypes as described earlier (n>25 for each concentration. (d) The distance between MK and CH cartilages was measured from the same embryos as in (c). *p<0.05; **p<0.01. Error bars show SEM (standard error of the mean).
The phenotypic rescue of the zebrafish KS models by dmDf predicts a successful attenuation of hyperactive MEK signaling. To test this hypothesis directly, experiments were conducted that suppressed kmt2d, harvested and pooled protein from embryo heads (n=20/condition) and measured the abundance of phosphorylated (activated) MEK1/2 (pMEK1/2).
Zebrafish larvae (5 dpf; n=20) were decapitated and heads were homogenized with RIPA buffer (50 mM NaCl, 1% NP40, 50 mM Tris-HCl pH 7.5, 0.1% SDS, 0.5% Na deoxycholate, 1 mM Na3VO4, and 1 mM NaF). […]

rap1-CRISPR embryos = assay: Brain cell proliferation (pHH3 immunostaining) in rap1-mosaic mutants; settings: 100 nM, 2 dpf, listed as dmDf
Text: as §1, §2

kdm6a morphants = assay: Brain cell proliferation (pHH3 immunostaining) in kdm6a morphants; settings: 100 nM, 2 dpf, listed as dmDf
Text: as §1, §2

[1] = tested on: kmt2d+/−×kmt2d+/− progeny; assay: CE defect in stable kmt2d mutant intercross progeny; settings: 100 mM dmDf, 1 dpf
Text: FIG. 12: Treatment with dmDf rescues the defects of stable kmt2d mutant. kmt2d+/− adults were in-crossed and the embryos were then collected at 1 dpf, 2 dpf and 5 dpf to assess dmDf efficacy. […] Error bars show SEM (standard error of the mean).
Although the small molecule testing data in CRISPR F0 mosaic models are consistent with morphant phenotypes (and rescue), experiments recognized the necessity of testing the potential efficacy of dmDf in a stable genetic model that is a better genotypic proxy to human patients. […] In addition to examining proliferation of cells in the brain, experiments assessed whether neural differentiation is affected (see, Van Laarhoven, P. M. et al. Hum Mol Genet 24, 4443-53 (2015)).
as §2

## CC(C)c1nc(-c2cccc(NS(=O)(=O)c3c(F)cccc3F)c2F)c(-c2ccnc(N)n2)s1 [Compound 8, desmethyl-Dabrafenib]
kmt2d-CRISPR embryos
  total number of proliferating (pHH3+) cells in brain: can be rescued; also recorded: restored the total number of proliferating cells to wild type levels
pMEK1/2; kmt2d suppressed, 5 dpf heads, listed as dmDf
  abundance of pMEK1/2: attenuates hyperactivation of MEK1/2; also recorded: restored the abundance of pMEK1/2 to levels indistinguishable from wild type embryos
pMEK1/2; uninjected embryos
  abundance of pMEK1/2: neither concentration had an appreciable effect
rap1-CRISPR embryos
  total number of proliferating (pHH3+) cells in brain: can be rescued; also recorded: restored the total number of proliferating cells to wild type levels
kdm6a morphants
  total number of proliferating (pHH3+) cells in brain: significantly increases pHH3+ proliferating cells; also recorded: restored the total number of proliferating cells to wild type levels
[1]
  CE defect: ameliorates significantly
[1]; p<0.001
  embryos showing Class I or Class II CE defects: 20%

Reference: US20210196714A1, “COMPOSITIONS AND METHODS FOR TREATING DISORDERS CHARACTERIZED WITH ABERRANT RAS/MAPK SIGNALING” (Duke University, priority 2018, published 2021)
